Laboratory results as given in US20220062240A1, “METHODS OF TREATING CANCER USING A CLK INHIBITOR” (BioSplice Therapeutics, Inc., priority 2018, published 2022).
Like-named read-outs stand apart in the source and are kept apart here.

Legend:
[1] = test system: haematopoietic & lymphoid tumors (13 cell lines); assay: CellTiter-Glo Viability Assay, haematopoietic & lymphoid tumors; format: cell-based; settings: Homo sapiens, inhibition of cancer cell proliferation
BT-549 = assay: CellTiter-Glo Viability Assay, breast cancer; format: cell-based; settings: Homo sapiens, 96 h; BT-549, breast cancer, four days; read-out: EC50
T47D = assay: CellTiter-Glo Viability Assay, breast cancer; format: cell-based; settings: Homo sapiens, 96 h, breast cancer, four days, read-out: EC50
MCF7 = assay: CellTiter-Glo Viability Assay, breast cancer; format: cell-based; settings: Homo sapiens, 96 h; MCF7, breast cancer, four days; read-out: EC50
CAMA1 = assay: CellTiter-Glo Viability Assay, breast cancer; format: cell-based; settings: Homo sapiens, CAMA-1, 96 h; CAMA1, breast cancer, four days; read-out: EC50
MDA-MB-231-Luc = assay: CellTiter-Glo Viability Assay, breast cancer; format: cell-based; settings: Homo sapiens, 96 h; MDA-MB-231-Luc, breast cancer, four days; read-out: EC50
ZR-75-1 = assay: CellTiter-Glo Viability Assay, breast cancer; format: cell-based; settings: Homo sapiens, 96 h; ZR-75-1, breast cancer, four days; read-out: EC50
HCC1599 = assay: CellTiter-Glo Viability Assay, breast cancer; format: cell-based; settings: Homo sapiens, 96 h; HCC1599, breast cancer, four days; read-out: EC50
DU4475 = assay: CellTiter-Glo Viability Assay, breast cancer; format: cell-based; settings: Homo sapiens, DU-4475, 96 h; DU4475, breast cancer, four days; read-out: EC50
CLK2 = molecular target: T1, CLK2 (Homo sapiens, UniProt P49760); assay: CLK2 kinase activity assay (Z-lyte, Ser/Thr 6 peptide); format: biochemical; settings: recombinant CLK2 kinase, ATP 60 μM; read-out: EC50
T1 construct: purchased Thermo Fisher (Life Technologies), Z'-LYTE Kinase Assay Kits
T1 sequence (P49760 whole entry): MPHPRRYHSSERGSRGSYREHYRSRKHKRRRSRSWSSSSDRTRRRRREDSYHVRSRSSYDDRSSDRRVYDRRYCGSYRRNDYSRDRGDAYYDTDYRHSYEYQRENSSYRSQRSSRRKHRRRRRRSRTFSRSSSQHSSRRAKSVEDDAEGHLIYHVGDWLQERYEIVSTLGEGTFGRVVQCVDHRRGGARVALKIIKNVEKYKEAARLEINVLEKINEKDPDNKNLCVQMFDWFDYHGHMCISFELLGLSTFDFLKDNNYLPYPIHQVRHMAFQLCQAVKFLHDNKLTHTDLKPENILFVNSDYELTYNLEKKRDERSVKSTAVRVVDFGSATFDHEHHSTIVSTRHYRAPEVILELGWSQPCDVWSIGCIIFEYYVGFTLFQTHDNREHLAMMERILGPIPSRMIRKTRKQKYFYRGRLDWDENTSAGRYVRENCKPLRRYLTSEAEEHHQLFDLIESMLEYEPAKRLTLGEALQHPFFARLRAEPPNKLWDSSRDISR
Method: All reactions were performed in duplicate.

[2] = test system: liver cancer (3 cell lines); assay: CellTiter-Glo Viability Assay, liver cancer; format: cell-based; settings: Homo sapiens, inhibition of cancer cell proliferation
[3] = test system: ovarian cancer (4 cell lines); assay: CellTiter-Glo Viability Assay, ovarian cancer; format: cell-based; settings: Homo sapiens, inhibition of cancer cell proliferation
CLK3 = CLK3 (Homo sapiens, UniProt P49761); assay: CLK3 kinase activity assay (Z-lyte, Ser/Thr 18 peptide)
Sequence of CLK3 (P49761 whole entry): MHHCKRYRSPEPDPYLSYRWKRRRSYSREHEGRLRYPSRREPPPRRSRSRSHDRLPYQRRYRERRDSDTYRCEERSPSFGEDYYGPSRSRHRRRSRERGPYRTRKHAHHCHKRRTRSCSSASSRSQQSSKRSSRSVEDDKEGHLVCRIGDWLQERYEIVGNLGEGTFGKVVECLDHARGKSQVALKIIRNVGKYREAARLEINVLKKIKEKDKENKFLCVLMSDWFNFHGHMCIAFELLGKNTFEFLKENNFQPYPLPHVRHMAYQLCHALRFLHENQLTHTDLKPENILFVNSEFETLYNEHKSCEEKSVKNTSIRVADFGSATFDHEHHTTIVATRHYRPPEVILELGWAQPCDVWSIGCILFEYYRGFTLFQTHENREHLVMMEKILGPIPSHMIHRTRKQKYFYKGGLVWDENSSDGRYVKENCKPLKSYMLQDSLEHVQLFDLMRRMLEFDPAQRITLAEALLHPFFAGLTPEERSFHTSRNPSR

[4] = test system: lung cancer (4 cell lines); assay: CellTiter-Glo Viability Assay, lung cancer; format: cell-based; settings: Homo sapiens, inhibition of cancer cell proliferation
[5] = test system: pancreatic cancer (8 cell lines); assay: CellTiter-Glo Viability Assay, pancreatic cancer; format: cell-based; settings: Homo sapiens, inhibition of cancer cell proliferation
[6] = test system: colorectal cancer (6 cell lines); assay: CellTiter-Glo Viability Assay, colorectal cancer; format: cell-based; settings: Homo sapiens, inhibition of cancer cell proliferation
all 50 cell lines = assay: CellTiter-Glo Viability Assay, average across all cell lines; format: cell-based; settings: Homo sapiens; across all 50 cell lines; read-out: average EC50 for inhibition of cancer cell proliferation
How it was run: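 Cancer cell lines of several tumour types plated at 300-3,000 cells/well and exposed to compound in duplicate for four days at 37° C, 5% CO2, with DMSO-treated controls. Viability read by CellTiter-Glo luminescence (ATP content); EC50 derived from dose-response curves.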

[7] = test system: prostate cancer (5 cell lines); assay: CellTiter-Glo Viability Assay, prostate cancer; format: cell-based; settings: Homo sapiens

- EC50 ([1]; DND41, DND-41 cell line, read-out: Haematopoietic & Lymphoid tumors, EC50 (μM) DND-41): 0.014 µM
- EC50 ([1]; MV4-11, MV-4-11 cell line, read-out: Haematopoietic & Lymphoid tumors, EC50 (μM) MV-4-11): 0.007 µM
- EC50 ([1]; Rec1, REC-1 cell line, read-out: Haematopoietic & Lymphoid tumors, EC50 (μM) REC-1): 0.024 µM
- EC50 ([1]; SU-DHL-4, SUDHL4 cell line, read-out: Haematopoietic & Lymphoid tumors, EC50 (μM) SUDHL4): 0.009 µM
- EC50 ([1]; HL-60 cell line, read-out: Haematopoietic & Lymphoid tumors, EC50 (μM) HL-60): 0.034 µM
- EC50 ([1]; JM1 cell line, read-out: Haematopoietic & Lymphoid tumors, EC50 (μM) JM1): 0.01 µM
- EC50 ([1]; JURKAT, Clone E6-1 cell line, read-out: Haematopoietic & Lymphoid tumors, EC50 (μM) JURKAT, Clone E6-1): 0.031 µM
- EC50 ([1]; JeKo-1 cell line, read-out: Haematopoietic & Lymphoid tumors, EC50 (μM) JeKo-1): 0.008 µM
- EC50 ([1]; KASUMI-1 cell line, read-out: Haematopoietic & Lymphoid tumors, EC50 (μM) KASUMI-1): 0.01 µM
- EC50 ([1]; Loucy cell line, read-out: Haematopoietic & Lymphoid tumors, EC50 (μM) Loucy): 0.013 µM
- EC50 ([1]; MOLT-4 cell line, read-out: Haematopoietic & Lymphoid tumors, EC50 (μM) MOLT-4): 0.045 µM
- EC50 ([1]; TF-1 cell line, read-out: Haematopoietic & Lymphoid tumors, EC50 (μM) TF-1): 0.008 µM
- EC50 ([1]; TOLEDO cell line, read-out: Haematopoietic & Lymphoid tumors, EC50 (μM) TOLEDO): 0.019 µM
- EC50 (BT-549): 24 nM
- EC50 (T47D): 402 nM
- EC50 (MCF7): 336 nM
- EC50 (CAMA1): 88 nM
- EC50 (MDA-MB-231-Luc): 118 nM
- EC50 (ZR-75-1): 113 nM
- EC50 (HCC1599): 8 nM
- EC50 (DU4475): 46 nM
- EC50 (CLK2): 3.1 nM
- EC50 ([2]; SNU-398, SNU398 cell line, read-out: Liver cancer, EC50 SNU398): 38 nM
- EC50 ([2]; HEPG2 cell line, read-out: Liver cancer, EC50 HEPG2): 375 nM
- EC50 ([2]; PLC/PRF/5 cell line, read-out: Liver cancer, EC50 PLC/PRF/5): 444 nM
- EC50 ([3]; PA-1, PA1 cell line, read-out: Ovarian cancer, EC50 (μM) PA1): 0.057 µM
- EC50 ([3]; TOV112D, TOV-112D cell line, read-out: Ovarian cancer, EC50 (μM) TOV-112D): 0.102 µM
- EC50 ([3]; OV-90 cell line, read-out: Ovarian cancer, EC50 (μM) OV-90): 0.255 µM
- EC50 ([3]; OVCAR-3 cell line, read-out: Ovarian cancer, EC50 (μM) OVCAR-3): 0.025 µM
- EC50 (CLK3): 22.5 nM
- EC50 ([4]; A-427, A427 cell line, read-out: Lung cancer, EC50 (μM) A427): 0.064 µM
- EC50 ([4]; HCC78, HCC-78 cell line, read-out: Lung cancer, EC50 (μM) HCC-78): 0.1 µM
- EC50 ([4]; NCI-H460 cell line, read-out: Lung cancer, EC50 (μM) NCI-H460): 0.476 µM
- EC50 ([4]; NCI-H522 cell line, read-out: Lung cancer, EC50 (μM) NCI-H522): 0.06 µM
- EC50 ([5]; BXPC-3, BxPC3 cell line, read-out: Pancreatic cancer, EC50 BxPC3): 22 nM
- EC50 ([5]; CAPAN-1, Capan1 cell line, read-out: Pancreatic cancer, EC50 Capan1): 103 nM
- EC50 ([5]; Capan-2, Capan2 cell line, read-out: Pancreatic cancer, EC50 Capan2): 74 nM
- EC50 ([5]; MIA PaCa-2 cell line, read-out: Pancreatic cancer, EC50 MIA PaCa-2): 40 nM
- EC50 ([5]; PANC 05.04 cell line, read-out: Pancreatic cancer, EC50 PANC 05.04): 60 nM
- EC50 ([5]; PANC-1 cell line, read-out: Pancreatic cancer, EC50 PANC-1): 413 nM
- EC50 ([5]; UPAFII cell line, read-out: Pancreatic cancer, EC50 UPAFII): 136 nM
- EC50 ([6]; HCT-116, HCT116 cell line, read-out: Colorectal cancer, EC50 (μM) HCT116): 0.05 µM
- EC50 ([6]; HT-29, HT29 cell line, read-out: Colorectal cancer, EC50 (μM) HT29): 0.211 µM
- EC50 ([6]; SW-620, SW620 cell line, read-out: Colorectal cancer, EC50 (μM) SW620): 0.044 µM
- EC50 ([6]; DLD-1 cell line, read-out: Colorectal cancer, EC50 (μM) DLD-1): 0.095 µM
- EC50 ([6]; SW48 cell line, read-out: Colorectal cancer, EC50 (μM) SW48): 0.082 µM
- EC50 ([6]; SW480 cell line, read-out: Colorectal cancer, EC50 (μM) SW480): 0.078 µM
- EC50 ([7]; DU-145, read-out: Prostate cancer EC50 Du-145): 91 nM
- EC50 ([7]; PC-3, PC3 cell line, inhibition of cancer cell proliferation, read-out: Prostate cancer EC50 PC3): 31 nM
- EC50 ([7]; 22Rv1 cell line, inhibition of cancer cell proliferation, read-out: Prostate cancer EC50 22Rv1): 21 nM
- EC50 ([7]; LNCap clone FGC cell line, inhibition of cancer cell proliferation, read-out: Prostate cancer EC50 LNCap clone FGC): 50 nM
- EC50 ([7]; VCaP (Sigma) cell line, inhibition of cancer cell proliferation, read-out: Prostate cancer EC50 VCaP (Sigma)): 9 nM
Compound: O=C(Nc1c[nH]nc1-c1nc2c(-c3cccc(F)c3)cncc2[nH]1)c1cccnc1 [Compound 91]
- EC50 (all 50 cell lines): 99 nM
